For one data set, the system named is H1299 cells. As to the kind of experiment: Trypan blue viability assay, H1299. It counts as cell-based. From the text:
(§1) The non-small cell lung cancer (NSCLC) cell line NCI-H1299, the breast cancer cell lines MCF7 and MDA MB 231 and the Hep3B, Hep2G and SK-Hep1 cells were obtained from the American Type Culture Collection (ATCC) (Manassas, Va., USA) and maintained as a monolayer culture in Eagle's minimum essential medium (MEM, Invitrogen, Gaithersburg, Md., USA) supplemented with 10% fetal bovine serum at 37 C and 5% CO2. All treatments were done in triplicate samples on 96-well plates. VX2 cells were maintained as described in Geschwind et al., Cancer Res., 62:3909-3913 (2002).
The efficacy of 3-BrPA in the treatment of lung cancer cells was tested using the non-small cell lung cancer (NSCLC) cell line NCI-H1299. As described above, the cell line was grown as a monolayer in MEM (Invitrogen) supplemented with 10% fetal bovine serum (HyClone) at 37 C.° and 5% CO2, and all treatments were done in triplicate samples on 96-well plates.
The EC50 of 3-BrPA for H1299 cells lies between 0.08 and 0.09 mM. […] Therefore, considering that oral administration of 3-BrPA buffered in NaHCO3 is effective in prolonging survival in liver cancer models (Example 2), it is probable that oral administration of 3-BrPA buffered in NaHCO3 would also be effective in the treatment of lung cancer.

The test system of a further data set is genomic DNA. As to the kind of experiment: 14C-3-BrPA incorporation into genomic DNA (scintillation counting). It counts as cell-based. The settings on record: SK-Hep and Hep3B cells exposed to 14C-3-BrPA. The protocol: Many antineoplastic chemotherapeutics are alkylating agents that exert their effect by binding to DNA and interfering with cell replication. […] Since 3-BrPA has been reported to be an alkylating agent, it was determined whether 3-BrPA is incorporated into the DNA of 3-BrPA treated cells. To accomplish this, genomic DNA was isolated from SK-Hep and Hep3B cells that had been exposed to ^14C-3-BrPA.

Data set [1] is described as follows: ATP luminescent assay of 3-BrPA dissolved in alternative buffers. It counts as cell-based. As for the experimental part:
Cytotoxicity of 3-BrPA was evaluated by the IC50 values, representing the drug concentration which depletes ATP by 50% compared to non-treated control. On day 1, cells were seeded into 96-well plates in a volume of 100 μl per well. On day 2, the medium of all wells was removed and an aliquot of 100 μl of media having serial dilutions of 3-BrPA in PBS, NaHCO3, NaOH, KOH and KHCO3 was added to the appropriate well. After 24 h of drug exposure cytotoxic effects of 3-BrPA were monitored by cellular ATP level using CellTiter-Glo™ assay reagents from Promega Corp (Madison, Wis.). Briefly, 100 μl assay reagent was added to each well and mixed at room temperature for 2 min to develop luminescent signal. The luminescence intensity (cps) from each sample was determined with a spectrometer (Model Victor III, Perkin Elmer, Mass.). Relative luminescence was calculated in proportion to the numbers of living cells per sample well. The results are expressed as the mean of three independent experiments. The intracellular ATP contents were calculated and normalized by equal cell number and expressed as the percentage of the control cells. The IC50 values were estimated graphically from dose-response plots.
Based on the results described in Example 1, it was concluded that 10 mg of 3-BrPA is the maximum tolerated dose (MTD) if dissolved in 2.75 ml of PBS. […]

Data set [2] has as its system tumors implanted in rabbit livers. The note with it: cited from earlier work.
For another data set, the system named is MCF7 cells. The data set is described as follows: Trypan blue viability assay, MCF7. The data set is classed as cell-based.
Source text: as §1
The efficacy of 3-BrPA in the treatment of breast cancer cells was tested using the cancer cell lines MCF7 and MDA MB 231. As described above, the cell lines were grown as monolayers in MEM (Invitrogen) supplemented with 10% fetal bovine serum (HyClone) at 37 C.° and 5% CO2, and all treatments were done in triplicate samples on 96-well plates.
The EC50 of 3-BrPA for MCF7 cells lies between 0.05 and 0.06 mM. […] Therefore, considering that oral administration of 3-BrPA buffered in NaHCO3 is effective in prolonging survival in liver cancer models (Example 2), it is probable that oral administration of 3-BrPA buffered in NaHCO3 would also be effective in the treatment of breast cancer.

The source of these data is patent US10130598B2, “Methods and compositions for administration of 3-halopyruvate and related compounds for the treatment of cancer” (The Johns Hopkins University, priority 2008, dated 2018).

Structures are written as SMILES.

Consider `O=C(O)C(=O)CBr` [3-BrPA, 3-bromopyruvate], for which the Cells died result in the data set with H1299 cells (0.1 mM, within 3 hours) is on record as “more than 80%”; in the data set with MCF7 cells (0.05 mM, within 3 hours), “more than 40%”. Further, the Cell death with H1299 cells (0.2 mM) and with MCF7 cells (0.15 mM) was 100% in each case. Also, the “EC50 compared with EC50 of 3-BrPA for VX2 liver cancer cells” value with H1299 cells (H1299) and in the data set with MCF7 cells (MCF7) was “lower” throughout. Further, the “Viability (trypan blue)” value in the data set on H1299 cells (H1299) is “dose and time dependent decrease in viability”; with MCF7 cells (MCF7), “dose and time dependent decrease in viability”. The “14C incorporation into genomic DNA” value with genomic DNA is listed as “no evidence of ^14C incorporation”. The “IC50 value compared to 3-BrPA dissolved in PBS” value in data set [1] (dissolved in NaHCO3) is recorded as “did not show a significantly different in IC50 value”; in data set [1] (other buffers tested (NaOH, KOH and KHCO3)), “significantly higher IC50 values”. In data set [2] (administered directly into the liver by intra-arterial injection), the Tumor eradication result is “completely eradicate tumors”. The Therapeutic dose in data set [2] (in 25 ml of PBS, continuous 1 hour intra-arterial infusion) was 1.75 mM. Moreover, in data set [2] (intra-arterially delivered), the “Biodistribution: tumor uptake” value is reported as “high tumor uptake”. Moreover, the “Effects on healthy tissue” value in data set [2] (intra-arterially delivered) is “no negative effects on healthy tissue”.
